Molecules are shown by their SMILES.

For the assay, the target named is T1, HCV polymerase (Hepatitis C virus genotype 1b, UniProt P26663).
T1 construct: 2.5 pmoles (0.15 μg) HCV polymerase protein in a final volume of 75 μL
T1 sequence (P26663 2420-3010): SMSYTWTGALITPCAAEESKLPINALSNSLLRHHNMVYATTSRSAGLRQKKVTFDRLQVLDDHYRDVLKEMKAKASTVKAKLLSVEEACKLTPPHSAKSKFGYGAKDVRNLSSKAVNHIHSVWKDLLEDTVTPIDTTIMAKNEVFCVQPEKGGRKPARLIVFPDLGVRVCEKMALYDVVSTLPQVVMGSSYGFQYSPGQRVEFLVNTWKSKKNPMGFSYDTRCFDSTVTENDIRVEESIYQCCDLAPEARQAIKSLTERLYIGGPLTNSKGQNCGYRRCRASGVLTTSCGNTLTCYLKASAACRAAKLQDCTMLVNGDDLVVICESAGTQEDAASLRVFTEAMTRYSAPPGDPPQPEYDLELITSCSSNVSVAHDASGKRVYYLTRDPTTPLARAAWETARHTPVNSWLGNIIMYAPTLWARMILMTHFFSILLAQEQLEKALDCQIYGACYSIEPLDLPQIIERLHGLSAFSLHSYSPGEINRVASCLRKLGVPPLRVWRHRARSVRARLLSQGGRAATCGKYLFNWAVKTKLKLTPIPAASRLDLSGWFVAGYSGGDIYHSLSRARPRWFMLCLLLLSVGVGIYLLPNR
Put plainly: HCV polymerase primer/template-directed transcription assay (32P-GTP incorporation, filter binding). Type of assay: biochemical. The conditions noted are these: recombinant HCV polymerase; 30 minutes at 30° C.; concentration giving 50% inhibition of polymerase-directed transcription; read-out: IC50. The essentials:
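IC50s come from triplicate cpm, refit with an enzyme-concentration (30 nM) correction when under 200 nM. Reactions ran 30 min at 30° C in Tris pH 7.2 with MgCl2, 1 μM GTP spiked with α-32P-GTP, biotin-dG12 primer and poly(rC)300 template, with 1% DMSO. Incorporated label was collected on DE filtermats and counted.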
A word on the IC50: it is the point on the concentration scale where inhibition reaches its midpoint. `Cc1cc(C)n2nc(CC3=C(O)CC(CCc4cccc(C(C)(C)C)c4)(C4CCCC4)OC3=O)nc2n1` (stereo not drawn) [B(03), 6-[2-(3-tert-Butyl-phenyl)-ethyl]-6-cyclopentyl-3-(5,7-dimethyl-[1,2,4]triazolo[1,5-a]pyrimidin-2-ylmethyl)-4-hydroxy-5,6-dihydro-pyran-2-one]: the IC50 was 5 nM.

On to `Cc1cc(C)n2nc(CC3=C(O)CC(CCc4ccc(-c5c(C)noc5C)cc4)(C4CCCC4)OC3=O)nc2n1` (stereo not drawn) [B(04), 6-Cyclopentyl-6-{2-[4-(3,5-dimethyl-isoxazol-4-yl)-phenyl]-ethyl}-3-(5,7-dimethyl-[1,2,4]triazolo[1,5-a]pyrimidin-2-ylmethyl)-4-hydroxy-5,6-dihydro-pyran-2-one], for which the IC50 is 24 nM. For `COc1ccc(CCC2(C3CCCC3)CC(O)=C(Cc3ccc(-c4csnn4)cc3)C(=O)O2)cc1Cl` (stereo not drawn) [B(05), 6-[2-(3-Chloro-4-methoxy-phenyl)-ethyl]-6-cyclopentyl-4-hydroxy-3-(4-[1,2,3]thiadiazol-4-yl-benzyl)-5,6-dihydro-pyran-2-one], the IC50 is 130 nM. With `COc1ccc(CCC2(C3CCCC3)CC(O)=C(Cc3ccc(-n4c(C)ccc4C)cc3)C(=O)O2)cc1Cl` (stereo not drawn) [B(06), 6-[2-(3-Chloro-4-methoxy-phenyl)-ethyl]-6-cyclopentyl-3-[4-(2,5-dimethyl-pyrrol-1-yl)-benzyl]-4-hydroxy-5,6-dihydro-pyran-2-one] the figure was 150 nM. With `CCc1cc(CCC2(C3CCCC3)CC(O)=C(Cc3nc4nc(C)cc(C)n4n3)C(=O)O2)ccc1O` (stereo not drawn) [B(07), 6-Cyclopentyl-3-(5,7-dimethyl-[1,2,4]triazolo[1,5-a]pyrimidin-2-ylmethyl)-6-[2-(3-ethyl-4-hydroxy-phenyl)-ethyl]-4-hydroxy-5,6-dihydro-pyran-2-one] the figure was 1 nM; with `Cc1cc(C)n2nc(CC3=C(O)CC(CCc4ccc(O)c(C(C)(C)C)c4)(C4CCCC4)OC3=O)nc2n1` (stereo not drawn) [B(08), 6-[2-(3-tert-Butyl-4-hydroxy-phenyl)-ethyl]-6-cyclopentyl-3-(5,7-dimethyl-[1,2,4]triazolo[1,5-a]pyrimidin-2-ylmethyl)-4-hydroxy-5,6-dihydro-pyran-2-one], 13 nM; with `COc1ccc(CCC2(C3CCCC3)CC(O)=C(Cc3nc4nc(C)cc(C)n4n3)C(=O)O2)cc1C` (stereo not drawn) [B(09), 6-Cyclopentyl-3-(5,7-dimethyl-[1,2,4]triazolo[1,5]pyrimidin-2-ylmethyl)-4-hydroxy-6-[2-(4-methoxy-3-methyl-phenyl)-ethyl]-5,6-dihydro-pyran-2-one], 54 nM. With `CCOc1ccc(CCC2(C3CCCC3)CC(O)=C(Cc3nc4nc(C)cc(C)n4n3)C(=O)O2)cc1C` (stereo not drawn) [B(10), 6-Cyclopentyl-3-(5,7-dimethyl-[1,2,4]triazolo[1,5]pyrimidin-2-ylmethyl)-6-[2-(4-ethoxy-3-methyl-phenyl)-ethyl]-4-hydroxy-5,6-dihydro-pyran-2-one] the figure was 53 nM; with `Cc1cc(C)n2nc(CC3=C(O)CC(CCc4ccc(OC(C)C)c(C)c4)(C4CCCC4)OC3=O)nc2n1` (stereo not drawn) [B(11), 6-Cyclopentyl-3-(5,7-dimethyl-[1,2,4]triazolo[1,5]pyrimidin-2-ylmethyl)-4-hydroxy-6-[2-(4-isopropoxy-3-methyl-phenyl)-ethyl]-5,6-dihydro-pyran-2-one], 19 nM. For `CCc1cccc(CCC2(C3CCCC3)CC(O)=C(Cc3nc4nc(C)cc(C)n4n3)C(=O)O2)c1` (stereo not drawn) [B(12), 6-Cyclopentyl-3-(5,7-dimethyl-[1,2,4]triazolo[1,5]pyrimidin-2-ylmethyl)-6-[2-(3-ethyl-phenyl)-ethyl]-4-hydroxy-5,6-dihydro-pyran-2-one], the IC50 came out at 26 nM. For `COc1ccc(CCC2(C3CCCC3)CC(O)=C(Cc3nc4nc(C)cc(C)n4n3)C(=O)O2)cc1Cl` (stereo not drawn) [B(13), 6-[2-(3-Chloro-4-methoxy-phenyl)-ethyl]-6-cyclopentyl-3-(5,7-dimethyl-[1,2,4]triazolo[1,5-a]pyrimidin-2-ylmethyl)-dihydro-pyran-2,4-dione], the IC50 amounted to 20 nM. Take `CC(C)Oc1ccc(CCC2(C3CCCC3)CC(O)=C(Cc3nc4cc(Cl)ccc4n3C(C)C)C(=O)O2)cc1F` (stereo not drawn) [B(14), 3-(5-Chloro-1-isopropyl-1H-benzoimidazol-2-ylmethyl)-6-cyclopentyl-6-[2-(3-fluoro-4-isopropoxy-phenyl)-ethyl]-4-hydroxy-5,6-dihydro-pyran-2-one]: the IC50 turned out to be 630 nM. To `CC(C)Oc1ccc(CCC2(C3CCCC3)CC(O)=C(Cc3nc4ccccc4n3C)C(=O)O2)cc1F` (stereo not drawn) [B(16), 6-Cyclopentyl-6-[2-(3-fluoro-4-isopropoxy-phenyl)-ethyl]-4-hydroxy-3-(1-methyl-1H-benzoimidazol-2-ylmethyl)-5,6-dihydro-pyran-2-one] belongs 900 nM; to `COc1ccc(CC2=C(O)CC(CCc3ccc(OC)c(Cl)c3)(C3CCCC3)OC2=O)cc1` (stereo not drawn) [B(17), 6-[2-(3-Chloro-4-methoxy-phenyl)-ethyl]-6-cyclopentyl-4-hydroxy-3-(4-methoxy-benzyl)-5,6-dihydro-pyran-2-one], 1100 nM; to `Cc1cc(C)n2nc(CC3=C(O)CC(CCc4ccc(OC(C)C)c(F)c4)(C4CCCC4)OC3=O)nc2n1` (stereo not drawn) [B(18)], 21 nM. With `Cc1cc(C)n2nc(CC3=C(O)CC(CCc4ccc(F)c(Cl)c4)(C4CCCC4)OC3=O)nc2n1` (stereo not drawn) [B(19), 6-[2-(3-Chloro-4-fluoro-phenyl)-ethyl]-6-cyclopentyl-3-(5,7-dimethyl-[1,2,4]triazolo[1,5]pyrimidin-2-ylmethyl)-4-hydroxy-5,6-dihydro-pyran-2-one] the figure was 60 nM; with `CCOc1ccc(CCC2(C3CCCC3)CC(O)=C(Cc3nc4nc(C)cc(C)n4n3)C(=O)O2)cc1Cl` (stereo not drawn) [B(20), 6-[2-(3-Chloro-4-ethoxy-phenyl)-ethyl]-6-cyclopentyl-3-(5,7-dimethyl-[1,2,4]triazolo[1,5]pyrimidin-2-ylmethyl)-4-hydroxy-5,6-dihydro-pyran-2-one], 4 nM.

On to `COc1ccc(CCC2(C3CCCC3)CC(O)=C(Cc3ccc(S(C)(=O)=O)cc3)C(=O)O2)cc1Cl` (stereo not drawn) [B(21), 6-[2-(3-Chloro-4-methoxy-phenyl)-ethyl]-6-cyclopentyl-4-hydroxy-3-(4-methanesulfonyl-benzyl)-5,6-dihydro-pyran-2-one], for which the IC50 was determined as 400 nM. To `COc1ccc(CCC2(C3CCCC3)CC(O)=C(Cc3ccc(C#N)cc3)C(=O)O2)cc1Cl` (stereo not drawn) [B(22), 4-{6-[2-(3-Chloro-4-methoxy-phenyl)-ethyl]-6-cyclopentyl-4-hydroxy-2-oxo-5,6-dihydro-2-pyran-3-ylmethyl}-benzonitrile] belongs 1200 nM; to `COc1ccc(CCC2(C3CCCC3)CC(O)=C(Cc3cccc(C#N)c3)C(=O)O2)cc1Cl` (stereo not drawn) [B(23), 3-{6-[2-(3-Chloro-4-methoxy-phenyl)-ethyl]-6-cyclopentyl-4-hydroxy-2-oxo-5,6-dihydro-2-pyran-3-ylmethyl}-benzonitrile], 870 nM. With `COc1ccc(CCC2(C3CCCC3)CC(O)=C(Cc3ccc(-n4cccn4)cc3)C(=O)O2)cc1Cl` (stereo not drawn) [B(24), 6-[2-(3-Chloro-4-methoxy-phenyl)-ethyl]-6-cyclopentyl-4-hydroxy-3-(4-pyrazol-1-yl-benzyl)-5,6-dihydro-pyran-2-one] the figure was 140 nM.

These data come from patent publication US7473790B2 (Pfizer Inc., priority 2003, dated 2009).
